System: murine osteoclast precursors
Assay: TRANCE (RANKL)-induced osteoclast formation in vitro, TRAP assay
Format: cell-based
Details: osteoclast precursors cultured 3 days with murine CSF-1 (30 ng/mL) and TRANCE (300 ng/mL); FIG. 1
Description: The effects of the compound of Formula II-A-1 on TRANCE-mediated osteoclastogenesis were evaluated against murine osteoclast precursors using a TRAP (tartrate resistant acid phosphatase) assay. The techniques comprising this method are described more fully in U.S. Pat. No. 6,673,771.
Osteoclast precursors were cultured in 96-well plates (1×10^5/mL, 200 μL/well) for 3 days in the presence of murine CSF-1 (30 ng/mL) and TRANCE (300 ng/mL) with or without the compounds of Formulae III-1 and II-A-1 at the indicated concentration. After 3 days, the cells were fixed and stained for tartrate-resistant acid phosphatase (TRAP). TRAP-positive multinucleated cells were counted as osteoclast-like multinucleated cells.

SMILES	inhibition of TRANCE induced osteoclast formation (TRAP-positive multinucleated cells)
CC(=O)OCC12CCC(OC(C)=O)CC1(O)CC[C@@H]1[C@@H]2CCC2(C)C(C3=CC(=O)OC3)CCC12O (some centres unmarked) [II-A-1]	inhibited TRANCE induced osteoclast formation in vitro in a dose-dependent manner
CC12CC[C@H]3[C@@H](CCC4(O)CC(OC(=O)CCC(=O)O)CCC34COC(=O)CCC(=O)O)C1(O)CCC2C1=CC(=O)OC1 (some centres unmarked) [III-1]	inhibited TRANCE induced osteoclast formation in vitro in a dose-dependent manner
